The values below come from US20220098160A1, “NOVEL CDK 8/19 INHIBITORS” (BIOCAD, priority 2018, published 2022).

A short description of data set [1]: Chemical stability in human blood plasma. The format is in vitro ADME. The settings on record: pooled human blood plasma, 10 μM, 4 hours at 37° C., amount of substance remaining. The method, then: Chemical stability of the compounds described herein was determined in human blood plasma.
The determination of stability in human blood plasma was performed using a pooled human blood plasma taken from ten healthy donors. The initial solution of the candidate (10 mM in DMSO) was diluted with the pooled blood plasma to a concentration of 10 μM (test solution). The test solution was incubated in a solid-state thermostat for 4 hours at 37° C. The HPLC method and Agilent1200 chromatograph (Agilent, USA) were used to determine the peak areas of the compounds in the test samples corresponding to the initial test time (before incubation) and the final test time (after incubation in a solid-state thermostat for 4 hours at 37° C.) with preliminary precipitation of proteins using acetonitrile. Chromatographic analysis was performed using a gradient elution mode at a flow rate of 1 ml/min. The amount of substance in the sample expressed in % was determined after the thermostat treatment.

Data set [2] can be described thus: Enzymatic stability in human liver S9 fractions. The format is in vitro ADME. The settings on record: pooled human liver S9 fraction; 0.5 mg/ml human liver S9, 10 μm compound, 37° C., pH 7.4. The protocol: Determining enzymatic stability of the candidates made it possible to evaluate the resistance of the compounds of the present invention to the exposure to biotransformation enzymes.
The enzymatic decomposition rate of the compounds was determined by incubation in a solid-state thermostat at 37° C. of a reaction mixture containing 0.5 mg/ml of pooled S9 fractions of the human liver (XenoTech, USA, cat. # H0610), 10 μm compounds, 2 mM β-nicotinamide adenine dinucleotide (Carbosynth, UK, cat. # NN 10871), and 4 mM magnesium chloride in 0.1 M sodium phosphate buffer (pH=7.4). The reaction was stopped with acetonitrile based on 100 μl of acetonitrile per 100 μl of the reaction mixture. After stopping the reaction, the samples were centrifuged for 10 minutes at 10,000 rpm. The supernatant was analyzed by chromatography using an Agilent1200 chromatograph (Agilent, USA). Chromatographic analysis was performed in a gradient elution mode at a flow rate of 1 ml/min. A logarithm of the peak area of the substance was plotted versus time. The dependent coefficient of this line corresponded to the elimination rate constant (k), which was used to calculate the half-life of the drug (t1/2) and decomposition rate (CLint): […]

In a further data set the test system is MV4-11 cell line. Description: Antiproliferative activity on MV4-11 cell line (AlamarBlue). The settings on record: Homo sapiens, 120 h incubation, average of several runs, read-out: MV-4-11 IC50. Type of data set: cell-based. The method, then:
The antiproliferative activity of the CDK8 inhibitors according to the present invention was measured in a cell test on a finite MV4-11 cell line (biphenotypic myelomonocytic leukemia, ATCC© CRL-9591™) using an intravital AlamarBlue dye (ThermoFisher, #DAL1100). The cells were grown on an RPMI-1640 medium (PanEco, #C330p) supplemented with 10% FBS (Gibco, #16140-071), then washed and re-seeded on a culture medium with 10% FBS (Gibco, #16140-071) in 96-well culture plates (Corning, #3599) in the amount of ˜10×10^3 cells per 100 μl of medium per well. The tested compounds were dissolved in DMSO and diluted with 10% FBS (Gibco, #16140-071) to a final concentration ranging from 0 to 100 μM. […] At the end of the incubation period, 15 μl of AlamarBlue reagent (ThermoFisher, #DAL1100) were added to the wells. The contents of the plates were mixed using an orbital shaker (Biosan, Latvia), and incubated further from 3 to 5 hours at 37° C. in an incubator with 5% C02. The number of living cells was detected using a microplate spectrophotometer (Tecan Infinite M200Pro, Switzerland) by measuring a fluorescence signal at an excitation wavelength (λEx) of 540 nm and emission wavelength (λEm) of 590 nm.
The IC50 value was determined using the Magellan 7.2 program (Tesap, Switzerland) by approximating the experimental points using a four-parameter model with the Levenberg-Marquardt optimization (Table 10).

Data set [3] can be described thus: General cytotoxicity test on HepG2 cells. Type of data set: cell-based. The settings on record: human, 72 hours incubation, 200 to 0.78 μM, average of several runs, read-out: Hep-G2 CC50. The method, then:
The CC50 value was determined in a cytotoxicity test. The experiments were performed using HepG2 cells (hepatocellular carcinoma, ATCC© HB-8065™). The cells were seeded into 96-well plates (Corning, #3599) at a concentration of ˜20×10^3 cells per 100 μl of medium per well, and incubated for 72 hours with the introduced compounds in the concentration range from 200 to 0.78 μM. Cell viability was evaluated according to the method described above.

Another data set has as its target T1, CDK8/CyclinC (Homo sapiens, UniProt P49336).
T1 construct: purchased ThermoFisher PR7261B
Description: LanthaScreen TR-FRET binding to recombinant CDK8 in complex with Cyclin C. The settings on record: CDK8/CyclinC 5 nM, Tracer 236 10 nm, average of several runs; read-out: CDK8-CycC IC50. The protocol: The ability of the compounds described herein to bind to the CDK8 protein was determined using the LanthaScreen method (ThermoFisher).
The measurements were conducted in a reaction volume (15 μl) using a 384-well plate (Corning, #CLS4513). CDK8/CyclinC enzyme (ThermoFisher, #PR7261B) was mixed with Anti-His-tag-Biotin antibodies (ThermoFisher, #PV6090), Streptavidin-Eu (ThermoFisher, #PV6025), and the resulting mixture was added to the wells of the plate in the amount of 5 μl per well. The final concentrations of the substances were as follows: CDK8/CyclinC—5 nM, Streptavidin-Eu—3 nM, Anti-His-tag-Biotin—3 nM. Staurosporine was used as a control inhibitor, and a 0.1% solution of dimethyl sulfoxide (DMSO) in the reaction buffer containing 250 mM HEPES (pH 7.5), 50 mM MgCl2, 5 mM EGTA, and 0.05% Brij-35 was used as a blank.
Tested inhibitors and controls were added to the corresponding wells in the amount of 5 μl per well. The plate was incubated at room temperature for 20 minutes. […] The final concentration of the tracer was 10 nm. A reaction buffer was used as a negative control instead of the tracer solution. The plate was incubated for 40 minutes at 25° C. Then the TR-FRET signal was measured on a SPARK20 plate reader (Tesap, Switzerland) according to the manufacturer's recommendations, and converted to the amount of kinase-bound tracer. The IC50 value was determined using the SparkControl Magellan 1.2 program (Tesap, Switzerland) by approximating the experimental points using a four-parameter model with the Levenberg-Marquardt optimization (Table 11).
(Time-resolved FRET reads energy transfer from a long-lived donor to a nearby acceptor.)

T1 sequence (P49336 whole entry): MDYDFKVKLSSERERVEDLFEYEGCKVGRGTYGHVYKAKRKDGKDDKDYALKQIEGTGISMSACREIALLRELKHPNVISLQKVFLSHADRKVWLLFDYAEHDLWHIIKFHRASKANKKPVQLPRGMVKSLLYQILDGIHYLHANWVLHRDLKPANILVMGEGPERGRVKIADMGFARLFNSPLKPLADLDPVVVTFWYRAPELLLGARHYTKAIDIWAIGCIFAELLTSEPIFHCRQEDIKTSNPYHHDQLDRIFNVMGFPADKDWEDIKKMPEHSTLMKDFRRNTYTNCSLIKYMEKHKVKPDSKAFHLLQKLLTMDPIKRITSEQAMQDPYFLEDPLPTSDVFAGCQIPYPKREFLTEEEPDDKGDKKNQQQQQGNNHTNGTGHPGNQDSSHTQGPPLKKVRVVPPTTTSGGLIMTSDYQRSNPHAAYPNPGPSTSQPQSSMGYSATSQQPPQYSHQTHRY
T1 sequence (P24863 whole entry partner): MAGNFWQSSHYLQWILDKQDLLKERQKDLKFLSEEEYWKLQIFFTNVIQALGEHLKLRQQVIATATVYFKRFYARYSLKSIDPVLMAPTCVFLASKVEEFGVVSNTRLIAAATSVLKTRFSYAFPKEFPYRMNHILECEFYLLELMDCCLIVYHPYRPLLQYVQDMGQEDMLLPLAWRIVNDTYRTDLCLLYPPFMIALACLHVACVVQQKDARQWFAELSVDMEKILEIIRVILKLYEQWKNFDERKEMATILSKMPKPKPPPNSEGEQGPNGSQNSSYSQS

For orientation: microsomal CLint means the capacity of the preparation to metabolise the compound, expressed as a volume cleared per time. Read a low microsomal CLint as slow turnover. In general, IC50 refers to the concentration that inhibits the measured activity by half. A word on the CC50: it is the concentration giving 50% cytotoxicity. Regarding `CN1CCN(C(=O)c2ccc3cc(CCNc4ccnc5ccc(C#N)cc45)ccc3c2)CC1` [Compound 5, 4-((2-(6-(4-methylpiperazine-1-carbonyl)naphth-2-yl)ethyl)amino) quinoline-6-carbonitryl], the “Stability in blood plasma, %” value in data set [1] is on record as 100%. Moreover, the microsomal CLint at 10 μM in data set [2] came out at 7.2 µL/min/mg. Also, the IC50 with MV4-11 cell line came to 0.125 µM; on CDK8/CyclinC it was 0.00607 µM. Further, the CC50 at 72 h in data set [3] was > 60 µM.
